Measurements from US20250296971A1, “GASTRIC INHIBITORY PEPTIDE RECEPTOR LIGANDS” (priority 2021, published 2025).
Like-named read-outs stand apart in the source and are kept apart here. *1 amine or outer side, *2 acyl side, *3 side chain or, on linkers, in order; H or OH if unused. Where a SMILES comes first, the peptide text is derived from it. Bridges are numbered along the chain shown (N, C = ends). [ ]: non-standard residue; d: D form. The star is where a group is joined. X5 = NC(=O)[C@H](CCCCNC(=O)CN1CCN(CC(=O)O)CCN(CC(=O)O)CCN(CC(=O)O)CC1)NC(=O)CCC(=O)NCCCOCCOCCOCCCN*; Trp(5-Cl) = N[C@@H](Cc1c[nH]c2ccc(Cl)cc12)C(=O)O; Pyridine(2,6-diCH2) = c1cc(C[*:1])nc(C[*:2])c1; 1Nal = N[C@@H](Cc1cccc2ccccc12)C(=O)O; mXylylene = c1cc(C[*:1])cc(C[*:2])c1; oXylylene = c1ccc(C[*:2])c(C[*:1])c1; Cya = N[C@@H](CS(=O)(=O)O)C(=O)O; Hyp = O=C(O)[C@@H]1C[C@@H](O)CN1; Tle = CC(C)(C)[C@H](N)C(=O)O; X28 = O=C(CCc1ccc2ccccc2c1)*; Ac5c = NC1(C(=O)O)CCCC1; Thp = NC1(C(=O)O)CCOCC1; Dap = NC[C@H](N)C(=O)O; Aib = CC(C)(N)C(=O)O

Molecular target: T1, GIPR (CHO-K1-hGIPR cells) (Homo sapiens, UniProt P48546)
T1 construct: host or cells: CHO-K1
T1 sequence (P48546 22-466): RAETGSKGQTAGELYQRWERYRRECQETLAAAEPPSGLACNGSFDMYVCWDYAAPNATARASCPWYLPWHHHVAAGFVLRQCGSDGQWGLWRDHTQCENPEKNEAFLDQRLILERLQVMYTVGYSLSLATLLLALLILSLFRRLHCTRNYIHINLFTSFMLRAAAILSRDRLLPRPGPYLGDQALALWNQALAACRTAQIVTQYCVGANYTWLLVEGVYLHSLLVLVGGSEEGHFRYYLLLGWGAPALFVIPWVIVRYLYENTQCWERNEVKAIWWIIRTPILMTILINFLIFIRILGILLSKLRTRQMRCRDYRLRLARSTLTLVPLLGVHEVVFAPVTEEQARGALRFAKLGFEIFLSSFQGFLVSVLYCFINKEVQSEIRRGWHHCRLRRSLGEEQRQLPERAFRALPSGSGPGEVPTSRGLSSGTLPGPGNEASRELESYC
Assay: FACS binding assay
Conditions: read-out: pIC50 Category (converted)
Method in brief: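 CHO-K1 cells stably expressing human GIPR were detached with Accutase, suspended at 500.000 cells per mL in PBS with 1% FCS, and washed ice-cold. Bound peptide was detected with 1 μg/mL APC-streptavidin for 30 min on ice.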

[1] = competition with 20 nM GIP-057, 4° C. for 1 hour
[2] = competition with 20 nM GIP-057, 4° C., 1 hour

IC50 [1]	IC50 [2]	Structure (SMILES)
	< 10 nM	CC[C@H](C)[C@@H]1NC(=O)[C@H](CC(C)C)NC(=O)C2(CCOCC2)NC(=O)[C@@H](NC(=O)[C@@H](CC(C)C)NC(=O)[C@H](CCC(=O)O)NC(=O)[C@@H]2C[C@@H](O)CN2C(=O)[C@H](Cc2c[nH]c3ccc(Cl)cc23)NC(=O)[C@H](Cc2c[nH]c3ccccc23)NC(=O)[C@H](CS(=O)(=O)O)NC(C)=O)CSCc2cccc(n2)CSC[C@@H](C(N)=O)NC1=O [GIP-189, Ac-Cya-Trp-5Clw-Hyp-Glu-leu-[Cys(2Lut)-Thp-Leu-Ile-Cys]-NH2] (Ac-[Cya]W[Trp(5-Cl)][Hyp]E[dL]C[Thp]LIC-NH2; linker 7-11 via Pyridine(2,6-diCH2))
10 to 79.4 nM		CC[C@H](C)[C@@H]1NC(=O)[C@H](CC(C)C)NC(=O)[C@H](C)NC(=O)[C@@H](NC(=O)[C@H](CC(C)C)NC(=O)[C@H](CCC(=O)O)NC(=O)[C@@H]2CCCN2C(=O)[C@H](Cc2c[nH]c3ccccc23)NC(=O)[C@H](Cc2c[nH]c3ccccc23)NC(=O)[C@H](CC(=O)O)NC(=O)[C@H](Cc2ccc(O)cc2)NC(=O)[C@@H](N)CCSC)CSCc2cccc(c2)CSC[C@@H](C(N)=O)NC1=O [GIP-254] (H-MYDWWPELCALIC-NH2; linker 9-13 via mXylylene)
100 to 794 nM		CC[C@H](C)[C@@H]1NC(=O)[C@H](CC(C)C)NC(=O)C(C)(C)NC(=O)[C@@H](NC(=O)[C@@H](NC(=O)[C@H](CCC(=O)O)NC(=O)[C@@H]2CCCN2C(=O)[C@H](Cc2c[nH]c3ccccc23)NC(=O)[C@H](Cc2c[nH]c3ccccc23)NC(=O)[C@H](CC(=O)O)NC(C)=O)C(C)(C)C)CSCc2cccc(c2)CSC[C@@H](C(=O)NCCCOCCOCCOCCCNC(=O)CCC(=O)N[C@@H](CCCCNC(=O)CN2CCN(CC(=O)O)CCN(CC(=O)O)CCN(CC(=O)O)CC2)C(N)=O)NC1=O [GIP-275, Ac-Asp-Trp-Trp-Pro-Glu-Tle-[Cys(3MeBn)-Aib-Leu-Ile-Cys]-Ttds-Lys(DOTA)-NH2] (Ac-DWWPE[Tle]C[Aib]LIC-X5; linker 7-11 via mXylylene)
100 to 794 nM		CC[C@H](C)[C@@H]1NC(=O)[C@@H](CC(C)C)NC(=O)[C@H](C)NC(=O)[C@@H](NC(=O)[C@H](CC(C)C)NC(=O)[C@H](CCC(=O)O)NC(=O)[C@@H]2CCCN2C(=O)[C@H](Cc2c[nH]c3ccccc23)NC(=O)[C@H](Cc2c[nH]c3ccccc23)NC(=O)[C@H](CC(=O)O)NC(=O)[C@H](Cc2ccc(O)cc2)NC(=O)[C@@H](N)CCSC)CSCc2ccccc2CSC[C@@H](C(N)=O)NC1=O [GIP-313] (H-MYDWWPELCA[dL]IC-NH2; linker 9-13 via oXylylene)

More lines, now with the values behind:

Structure (SMILES)	IC50 [1]	IC50 [2]
CC[C@H](C)[C@@H]1NC(=O)[C@H](CC(C)C)NC(=O)C(C)(C)NC(=O)[C@@H](NC(=O)[C@H](CNC(C)=O)NC(=O)[C@H](CCC(=O)O)NC(=O)[C@@H]2CCCN2C(=O)[C@H](Cc2cccc3ccccc23)NC(=O)[C@H](Cc2c[nH]c3ccccc23)NC(=O)[C@H](CC(=O)O)NC(C)=O)CSCc2cccc(c2)CSC[C@@H](C(N)=O)NC1=O [GIP-348, Ac-Asp-Trp-1Ni-Pro-Glu-Dap(Ac)-[Cys(3MeBn)-Aib-Leu-Ile-Cys]-NH2] (Ac-DW[1Nal]PE[Dap](Ac)C[Aib]LIC-NH2; linker 7-11 via mXylylene)	> 1000 nM	
CC[C@H](C)[C@@H]1NC(=O)[C@H](CC(C)C)NC(=O)C2(CCCC2)NC(=O)[C@@H](NC(=O)[C@@H](CC(C)C)NC(=O)[C@H](CCC(=O)O)NC(=O)[C@@H]2C[C@@H](O)CN2C(=O)[C@H](Cc2c[nH]c3ccc(Cl)cc23)NC(=O)[C@H](Cc2c[nH]c3ccccc23)NC(=O)[C@H](CC(=O)O)NC(C)=O)CSCc2cccc(n2)CSC[C@@H](C(N)=O)NC1=O [GIP-203, Ac-Asp-Trp-5Clw-Hyp-Glu-leu-[Cys(2Lut)-Eca-Leu-Ile-Cys]-NH2] (Ac-DW[Trp(5-Cl)][Hyp]E[dL]C[Ac5c]LIC-NH2; linker 7-11 via Pyridine(2,6-diCH2))		< 10 nM
CC[C@H](C)[C@@H]1NC(=O)[C@H](CC(C)C)NC(=O)C(C)(C)NC(=O)[C@@H](NC(=O)[C@@H](CC(C)C)NC(=O)[C@H](CCC(=O)O)NC(=O)[C@@H]2CCCN2C(=O)[C@H](Cc2c[nH]c3ccccc23)NC(=O)[C@H](Cc2c[nH]c3ccccc23)NC(=O)[C@H](CC(=O)O)NC(=O)CCc2ccc3ccccc3c2)CSCc2cccc(c2)CSC[C@@H](C(=O)NCCCOCCOCCOCCCNC(=O)CCC(=O)N[C@@H](CCCCNC(=O)CN2CCN(CC(=O)O)CCN(CC(=O)O)CCN(CC(=O)O)CC2)C(N)=O)NC1=O [GIP-281, Nph2p-Asp-Trp-Trp-Pro-Glu-leu-[Cys(3MeBn)-Aib-Leu-Ile-Cys]-Ttds-Lys(DOTA)-NH2] (X28-DWWPE[dL]C[Aib]LIC-X5; linker 7-11 via mXylylene)	100 to 794 nM	
